Measured values: ChEMBL document CHEMBL4311972, “Discovery of a benzothiophene-flavonol halting miltefosine and antimonial drug resistance in Leishmania parasites through the application of medicinal chemistry, screening and genomics” (Eur J Med Chem, 2019)
Several values for one entry are separate records, joined by “and”; a condition that tells them apart may be missing. Identical values can stand only once. Activity calls are given as the source filed them. No cut-off for these calls is given here.

Experiments:
Leishmania infantum [1] = assay: Antileishmanial activity against Leishmania infantum amastigotes infected in Syrian hamster assessed as reduction in parasite load at 40 mg/kg/day, po for 10 days formulated with 30% v/v cyclodextrin relative to control; format: functional; details: 240 h
[2] = Chemical stability of compound in PBS assessed as decrease in absorbance at 60 uM at pH 7 to 8 and 25 degC measured within 20 mins under dark conditions by UV-vis spectrophotometry analysis; format: physicochemical; details: read-out: Drug degradation
[3] = Chemical stability of compound in DMSO at 60 uM assessed as drug degradation measured at room temperature in dark after 1 day by UV-vis spectrophotometric analysis; format: physicochemical; details: read-out: Drug degradation
CYP2C9 = CYP2C9 (Homo sapiens, UniProt P11712); assay: Inhibition of human microsomal CYP2C9 expressed in baculovirus infected insect cells at 10 uM using luciferin-H as substrate preincubated with enzyme/substrate mixture for 30 mins followed by further incubation with NADPH for 30 mins by CYP450 luciferase Glo assay relative to control; format: ADME; details: probe luciferin-H
Sequence of CYP2C9 (P11712 whole entry): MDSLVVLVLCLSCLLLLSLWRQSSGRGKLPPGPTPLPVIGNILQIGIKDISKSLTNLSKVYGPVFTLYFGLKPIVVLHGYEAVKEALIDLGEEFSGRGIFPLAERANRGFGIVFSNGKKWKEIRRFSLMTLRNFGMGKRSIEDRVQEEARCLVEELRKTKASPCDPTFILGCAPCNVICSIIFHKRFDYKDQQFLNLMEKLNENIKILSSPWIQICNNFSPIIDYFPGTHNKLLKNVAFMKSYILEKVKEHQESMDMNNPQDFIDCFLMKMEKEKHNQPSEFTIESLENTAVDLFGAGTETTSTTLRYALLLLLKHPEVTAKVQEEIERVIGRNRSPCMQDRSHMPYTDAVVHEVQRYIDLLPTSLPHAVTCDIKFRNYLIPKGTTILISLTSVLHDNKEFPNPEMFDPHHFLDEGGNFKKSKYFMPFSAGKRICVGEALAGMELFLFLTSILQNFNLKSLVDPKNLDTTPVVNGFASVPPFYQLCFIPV

Leishmania donovani [4] = assay: Antileishmanial activity against antimony sensitive Leishmania donovani BPK091 promastigotes infected in C57BL/6 mouse bone marrow-derived macrophages assessed as reduction in parasite load at 5 uM treated with compound at 24 hrs post-infection measured after 72 hrs post infection by q-PCR analysis relative to control; format: functional
[5] = Toxicity in Syrian hamster infected with Leishmania infantum BCN150 promastigotes assessed as liver weight at 40 mg/kg/day, po for 10 days formulated with 50% v/v cyclodextrin (reference value: 5.892 +/- 0.446 g); format: organism-based, Mesocricetus auratus; details: in vivo, 240 h
[6] = Toxicity in Syrian hamster infected with Leishmania infantum BCN150 promastigotes assessed as spleen weight at 40 mg/kg/day, po for 10 days formulated with 30% v/v cyclodextrin (reference value: 0.183 +/- 0.04 g); format: organism-based, Mesocricetus auratus; details: in vivo, 240 h
[7] = Toxicity in Syrian hamster infected with Leishmania infantum BCN150 promastigotes assessed as effect on ALT level at 40 mg/kg/day, po for 10 days formulated with 30 to 50% v/v cyclodextrin measured after the last treatment; format: organism-based, Mesocricetus auratus; details: in vivo, 240 h
[8] = Toxicity in Syrian hamster infected with Leishmania infantum BCN150 promastigotes assessed as effect on plasma urea level at 40 mg/kg/day, po for 10 days formulated with 30 to 50% v/v cyclodextrin measured after the last treatment; format: organism-based, Mesocricetus auratus; details: in vivo, 240 h
[9] = Tmax in BALB/c mouse at 1 mg/kg, iv measured upto 72 hrs by snapshot method; format: ADME, organism-based; details: in vivo
[10] = Half-life in BALB/c mouse at 1 mg/kg, iv measured upto 72 hrs by snapshot method; format: ADME, organism-based; details: in vivo
[11] = Tmax in BALB/c mouse at 20 mg/kg, po measured upto 72 hrs by snapshot method; format: ADME, organism-based; details: in vivo
[12] = AUC (total) in BALB/c mouse at 20 mg/kg, po measured upto 72 hrs by snapshot method; format: ADME, organism-based; set-up: time < 72 hr, dose 20 mg/kg, route oral; details: in vivo
Leishmania donovani [13] = assay: Antileishmanial activity against Leishmania donovani BPK091 promastigotes transfected with Leishmania donovani BPK190 genomic cosmid DNA assessed as decrease in parasite growth at IC75 concentration incubated for 3 days under selective pressure and selection cycle repeated for 25 passages and measured at 43 to 78 days of selection; format: functional, organism-based
hERG = assay: Selectivity ratio of IC50 for human ERG to EC50 for antileishmanial activity against luciferase expressing intracellular amastigote stage of Leishmania infantum infected in human THP1 cells; format: toxicity, cell-based
Leishmania infantum [14] = assay: Anti-leishmanial activity against Leishmania infantum BCN150 promastigotes infected in Syrian hamster assessed as decrease in anti-leishmanial IgG level at 40 mg/kg/day, po for 10 days formulated with […] v/v DMSO by ELISA; format: functional, organism-based
[15] = Toxicity in Syrian hamster infected with Leishmania infantum BCN150 promastigotes assessed as liver weight at 40 mg/kg/day, po for 10 days formulated with 8% v/v DMSO (reference value: 5.874 +/- 0.414 g); format: organism-based, Mesocricetus auratus; details: in vivo, 240 h
[16] = Toxicity in Syrian hamster infected with Leishmania infantum BCN150 promastigotes assessed as effect on alkaline phosphatase level at 40 mg/kg/day, po for 10 days formulated with 8% v/v DMSO measured after the last treatment; format: organism-based, Mesocricetus auratus; details: in vivo, 240 h
[17] = Chemical stability of compound in PBS assessed as decrease in absorbance at 60 uM at pH 7 to 8 measured after exposure to daylight by UV-vis spectrophotometry analysis; format: physicochemical; details: buffer, pH 7, 60 µM
[18] = Chemical stability of compound in PBS assessed as decrease in absorbance at 20 uM at pH 8 measured after air bubbling by UV-vis spectrophotometry analysis; format: physicochemical; details: buffer, pH 8, 20 µM
[19] = Chemical stability of compound in PBS assessed as decrease in absorbance at 20 uM at pH 8 measured after 2 mins nitrogen bubbling by UV-vis spectrophotometry analysis; format: physicochemical; details: read-out: Drug degradation
Albumin [20] = target: T1, Albumin (Homo sapiens, UniProt P02768); assay: Binding affinity to human serum albumin in phosphate buffer assessed as decrease in emission intensity at 450 nm at 5 uM measured at pH 8 at albumin concentration of 0.6 +/-0.1 uM by fluorescence emission spectrum analysis; format: ADME; set-up: scale not given: the % may be the effect or the level left; details: isolated protein
T1 sequence (P02768 whole entry): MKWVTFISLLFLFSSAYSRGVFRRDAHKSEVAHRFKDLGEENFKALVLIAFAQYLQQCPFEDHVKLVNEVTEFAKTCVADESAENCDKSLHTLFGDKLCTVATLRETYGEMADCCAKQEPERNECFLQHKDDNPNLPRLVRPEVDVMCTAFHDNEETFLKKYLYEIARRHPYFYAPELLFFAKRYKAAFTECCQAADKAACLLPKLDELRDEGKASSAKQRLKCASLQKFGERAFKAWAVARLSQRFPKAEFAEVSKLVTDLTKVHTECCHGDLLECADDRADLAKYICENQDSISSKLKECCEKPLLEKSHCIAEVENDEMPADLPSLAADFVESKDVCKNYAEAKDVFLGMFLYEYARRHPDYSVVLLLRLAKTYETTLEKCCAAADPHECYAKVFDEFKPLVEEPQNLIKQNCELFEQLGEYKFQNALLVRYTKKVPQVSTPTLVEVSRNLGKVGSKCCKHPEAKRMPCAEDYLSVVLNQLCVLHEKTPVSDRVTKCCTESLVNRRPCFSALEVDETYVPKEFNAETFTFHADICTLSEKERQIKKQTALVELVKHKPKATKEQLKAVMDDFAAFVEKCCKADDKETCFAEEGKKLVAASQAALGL

Albumin [21] = target: T1, Albumin; assay: Binding affinity to human serum albumin in phosphate buffer assessed as increase in emission intensity at 530-550 nm at 5 uM measured at pH 8 at albumin concentration of 2 uM by fluorescence emission spectrum analysis; format: ADME; details: isolated protein, pH 8, 5 µM
[22] = Stability of the compound in phosphate buffer assessed as compound lifetime at 450 nm at 5 uM measured at pH 8 by fluorescence emission spectrum analysis; format: physicochemical; details: pH 8, 0.45 µM
Albumin [23] = target: T1, Albumin; assay: Binding affinity to human serum albumin in phosphate buffer assessed as increase in emission anisotropy at 530 nm at 5 uM measured at pH 8 by fluorescence emission spectrum analysis; format: ADME; details: isolated protein
[24] = Binding affinity to pepsin in porcine gastric mucosa in phosphate buffer assessed as compound lifetime at 530 nm at 5 uM measured at pH 8 by fluorescence emission spectrum analysis; format: ADME, Sus scrofa; details: pig
[25] = Toxicity in Syrian hamster infected with Leishmania infantum BCN150 promastigotes assessed as spleen lesions at 40 mg/kg/day, po for 10 days formulated with 30 to 50% v/v cyclodextrin measured under necropsy; format: organism-based, Mesocricetus auratus; details: in vivo, 240 h
Leishmania infantum [26] = assay: Antileishmanial activity against Leishmania infantum amastigotes infected in Syrian hamster assessed as reduction in parasite load in liver at 20 mg/kg/day, po for 10 days relative to control; format: functional; details: 240 h
[27] = Toxicity in Syrian hamster infected with Leishmania infantum BCN150 promastigotes assessed as dizziness at 20 mg/kg/day, po for 10 days measured daily; format: organism-based, Mesocricetus auratus; details: in vivo, 240 h
[28] = Toxicity in Syrian hamster infected with Leishmania infantum BCN150 promastigotes assessed as itching effect at 20 mg/kg/day, po for 10 days measured daily; format: organism-based, Mesocricetus auratus; details: in vivo, 240 h
[29] = Toxicity in Syrian hamster infected with Leishmania infantum BCN150 promastigotes assessed as distress effect at 20 mg/kg/day, po for 10 days measured daily; format: organism-based, Mesocricetus auratus; details: in vivo, 240 h
[30] = Toxicity in Syrian hamster infected with Leishmania infantum BCN150 promastigotes assessed as effect on alkaline phosphatase level at 20 mg/kg/day, po for 10 days measured after the last treatment; format: organism-based, Mesocricetus auratus; details: in vivo, 240 h
[31] = Toxicity in Syrian hamster infected with Leishmania infantum BCN150 promastigotes assessed as effect on plasma creatinine level at 20 mg/kg/day, po for 10 days measured after the last treatment; format: organism-based, Mesocricetus auratus; details: in vivo, 240 h
[32] = Toxicity in Syrian hamster infected with Leishmania infantum BCN150 promastigotes assessed as spleen lesions at 20 mg/kg/day, po for 10 days; format: organism-based, Mesocricetus auratus; details: in vivo, 240 h

In the case of `COc1ccc2oc(-c3csc4ccccc34)c(O)c(=O)c2c1`, the inhibition in vivo at 40 mg/kg/day (Leishmania infantum [1]) was 28.8%, the degraded at 20 min, 60 µM [2] was 50% and the degraded at 24 h, 60 µM [3] was 1%. For the same compound, the inhibition at 0.5 h, 10 µM (CYP2C9) was -10%, the inhibition at 5 µM (Leishmania donovani [4]) was 36% and the Activity [5] was 5.522 g. The Activity [6] was 0.719 g, the Activity [7] was “Non-Toxic” and the Activity [8] was “Non-Toxic”. It also gave a Tmax [9] of 4.8 min, a half-life [10] of 63.2 h and a Tmax [11] of 1 h. For the same compound, the AUC at 72 h [12] was 38.5 µM·h and 12500 ng·h/mL, the inhibition (Leishmania donovani [13]) was “Active” and the selectivity ratio (hERG) was 50. The inhibition (Leishmania infantum [14]) was “Active”, the Activity [15] was 5.444 g and the Activity [16] was “Non-Toxic”. The Stability [17] was “Unstable”, the Stability [18] was “Unstable” and the degraded at 2 min, 20 µM [19] was greater than 90%. It also gave an Activity (Albumin [20]) of 50%, an Activity (Albumin [21]) of 50% and a Time [22] of 0.32 nanoseconds. For the same compound, the Activity (Albumin [23]) was “Active”, the Time [24] was 5.5 nanoseconds and the Activity [25] was “Non-Toxic”.

With `CCCCCCCCCCCCCCCCOP(=O)([O-])OCC[N+](C)(C)C` [MILTEFOSINE] the inhibition in vivo at 20 mg/kg/day (Leishmania infantum [26]) was 81.2%, the Activity [27] was “Toxic” and the Activity [28] was “Toxic”. For the same compound, the Activity [29] was “Toxic”, the Activity [30] was “Non-Toxic” and the Activity [31] was “Non-Toxic”. For the same compound, the Activity [32] was “Non-Toxic”.
